Measurements taken from PMC6961345 (Antiviral Chemistry & Chemotherapy, 2018).
Where “and” joins values, the source holds several entries; their conditions need not be identical. Equal values may be shown once.

System: A/Georgia/20/2006 (H1N1) H275Y
Assay type: cell-based, influenza A virus

C[n+]1ccc(C(=O)NCc2ccccc2)cc1 [enisamium, N-methyl-4-benzylcarbamidopyridinium]
EC90: 144 µM and 286 µM
